Source: publication PMC8582824, “Targeting DDX3X Helicase Activity with BA103 Shows Promising Therapeutic Effects in Preclinical Glioblastoma Models” (Cancers, 2021)
One block for each compound: values may come before it.

Legend:
[1] = biological target: T1, DDX3X helicase activity (Homo sapiens, UniProt O00571); test: FRET-based DDX3X helicase assay; format: biochemical; settings: for IC50: FRET helicase assay, recombinant DDX3X, read-out: IC50 ± SD, DDX3X anti-enzymatic (helicase) activity
T1 construct: Recombinant his-tagged human full length DDX3X; His tag; made in house; host or cells: ShuffleT7 E. coli
Method: Recombinant his-tagged human full length DDX3X cloned the E. coli expression vector pET-30a(+). ShuffleT7 E. coli cells were transformed with the plasmid and grown at 37 °C up to OD600 = 0.7. DDX3X expression was induced with 0.5 mM IPTG at 15 °C O/N. Cells were harvested by centrifugation, lysed, and the crude extract was centrifuged at 100,000 g for 60 min at 4 °C in a Beckman centrifuge before being loaded onto a FPLC Ni-NTA column (GE Healthcare, Chicago, IL, USA). The column was equilibrated in Buffer A (50 mM Tris-HCl pH 8.0, 250 mM NaCl, 25 mM Imidazole and 20% glycerol). After extensive washing in Buffer A, the column was eluted with a linear gradient in Buffer A from 25 to 250 mM Imidazole. Proteins in the eluted fractions were visualized on SDS-PAGE and tested for the presence of DDX3X by Western blot with anti-DDX3X A300-475A (Bethyl Laboratories, Montgomery, TX, USA) at 1:4000 dilution in 5% milk. Fractions containing the purest DDX3X protein were pooled and stored at −80 °C.
The dsRNA substrate for the helicase assay was prepared by hybridizing two ss RNA oligonucleotides with the following sequences: • Fluo-FAM 5′ […] 3′ • Qu-BHQ1 5′ […] 3′ • DNA capture 5′ […] 3′.
The sequence in Fluo-FAM complementary to Qu-BHQ1 is underlined. Fluo-FAM carries a 6-carboxyfluorescein fluorophore at its 3′ end, while Qu-BHQ1 carries a Black Hole quencher group at its 5′ end. The DNA capture oligonucleotide is complementary to the Qu-BHQ1 oligonucleotide, but it bears no modifications. A helicase assay using the dsRNA substrate was performed in 20 mM TrisHCl (pH 8), 70 mM KCl, 2 mM MgCl2, 2 mM dithiothreititol, 12 units RNasin (Promega), 2 mM ATP, 50 nM dsRNA, and 100 nM capture strand in 20 μL of reaction volume. The unwinding reaction was started by adding 60 pmols of DDX3X recombinant protein and carried out at 37 °C for 40 min using a LightCycler 480 (Roche, Basel, Switzerland). The fluorescence intensity was recorded every 30 s. Values of fluorescence signal in the presence or in the absence of inhibitor molecules were analyzed by linear interpolation, and the corresponding slope values were used to determine the apparent unwinding rate.
The IC50 values have been calculated from dose–response curves. Data (in triplicate) were plotted and analyzed by least-squares nonlinear regression, according to the method of Marquardt–Levenberg, with the computer program GraphPad Prism 6.0. Data were fitted to the following equation:Eobs = Emax/(1 + (IC50/[I])^n)(1) where E(obs) is the observed enzymatic activity in the presence of each inhibitor dose [I]; E(max) is the maximal enzymatic activity in the absence of the inhibitor; and n is an exponential term to take into account sigmoidal dose–response curves.
All the compounds were tested for their ability to inhibit the helicase activity of DDX3X using a fluorescence resonance energy transfer (FRET)-based assay, as previously described. Values of fluorescence signal in the presence or in the absence of inhibitor molecules were analyzed by linear interpolation (for details, see Methods 2.3.2).

[2] = tested on: U251 cells; test: MTS cytotoxicity assay, U251 cells; format: cell-based; settings: 72 h
Method: (§1) For CellTiter 96® Aqueous One Solution Cell Proliferation Assay (MTS) (Promega, Madison, WI, USA), cells were seeded at 5 × 10^3 per well in 96-well plates in quadruplicate together a control with no cells to evaluate the background. After 24 h, the culture medium was removed, and fresh medium containing increasing concentrations of chemical compounds was added to cells. […] DMSO was the vehicle used for dilution of the compounds, and its final concentration on cells was less than 0.2%. Medium-only containing wells were included as controls. Cells were incubated with compounds at different concentrations for 72 h, then, 20 µL of CellTiter 96® AQueous One Solution Reagent was added into each well. After 3 h at 37 °C in a humidified, 5% CO2 atmosphere, the absorbance at 492 nm was recorded using an EZREAD400 (Biochrom, Cambridge, United Kingdom) plate reader. The average 490 nm absorbance from the “no cell” control wells was subtracted from all other values to yield background-corrected absorbance. Dose–response curves and CC50 values have been calculated by plotting the absorbance data as a function of inhibitor concentrations and fitting the data by least-squares nonlinear regression, according to the method of Marquardt–Levenberg, with the computer program GraphPad Prism 6.0.
(§2) Cells were incubated with a scalar concentration of DDX3X inhibitors, and after 72 h of treatment, cell viability was assessed by cytotoxicity assay. […] Compounds 4, 6, and BA103 were also evaluated against BJ primary fibroblasts; compound 4 has a cytotoxicity value of 84.7 μM; on the contrary, compounds 6 and BA103 were not toxic up to 200 μM concentration. This further excluded a possible nonspecific cytotoxic effect. […] Due to its interesting profile, compound BA103 was further tested against additional pulmonary (A549), breast (MDA-MB-231), colorectal (HCT-116), osteosarcoma (U2OS), rhabdomyosarcoma (RD18), GBM (DBTRG, U87, and U251) and medulloblastoma (DAOY) cancer cell lines.
(§3) Figure 5 Cytotoxicity of selected compounds. Compounds were assayed on DU-145, PC3, HepG2, Huh-7, HN6, U251, and U87 cell lines. The concentration of the compound, which reduced the number of viable cells by 50% (CC50), was determined by dose–response curve, and the mean CC50 value for each cell line was calculated by triplicate assays (raw data from U87 and U251 cells with dose–response curves used for the calculation of CC50 in Table S1 and Figure S2).
(§4) Table S1: Raw data of optical absorbance at 490 nm from MTS assay in U87 and U251 cells. Tables contain
(§5) means with SD of at least 5 different values that were used for preparation of figure 5.

[3] = tested on: panel of cancer cell lines (Du-145, PC3, HepG2, Huh-7, HN6, U87 and U231); test: Cytotoxicity screen on panel of cancer cell lines; format: cell-based; settings: 72 h of treatment
Method: For CellTiter 96® Aqueous One Solution Cell Proliferation Assay (MTS) (Promega, Madison, WI, USA), cells were seeded at 5 × 10^3 per well in 96-well plates in quadruplicate together a control with no cells to evaluate the background. After 24 h, the culture medium was removed, and fresh medium containing increasing concentrations of chemical compounds was added to cells. The fixed final concentrations were 0.1 μM, 1 μM, 10 μM, and 100 μM. DMSO was the vehicle used for dilution of the compounds, and its final concentration on cells was less than 0.2%. Medium-only containing wells were included as controls. […] After 3 h at 37 °C in a humidified, 5% CO2 atmosphere, the absorbance at 492 nm was recorded using an EZREAD400 (Biochrom, Cambridge, United Kingdom) plate reader. The average 490 nm absorbance from the “no cell” control wells was subtracted from all other values to yield background-corrected absorbance. Dose–response curves and CC50 values have been calculated by plotting the absorbance data as a function of inhibitor concentrations and fitting the data by least-squares nonlinear regression, according to the method of Marquardt–Levenberg, with the computer program GraphPad Prism 6.0.
Cells were incubated with a scalar concentration of DDX3X inhibitors, and after 72 h of treatment, cell viability was assessed by cytotoxicity assay. […]

[4] = tested on: U87 cells; test: MTS cytotoxicity assay, U87 cells; format: cell-based; settings: 72 h
Method: as §1, §2, §3, §4, §5

T1 sequence (O00571 whole entry): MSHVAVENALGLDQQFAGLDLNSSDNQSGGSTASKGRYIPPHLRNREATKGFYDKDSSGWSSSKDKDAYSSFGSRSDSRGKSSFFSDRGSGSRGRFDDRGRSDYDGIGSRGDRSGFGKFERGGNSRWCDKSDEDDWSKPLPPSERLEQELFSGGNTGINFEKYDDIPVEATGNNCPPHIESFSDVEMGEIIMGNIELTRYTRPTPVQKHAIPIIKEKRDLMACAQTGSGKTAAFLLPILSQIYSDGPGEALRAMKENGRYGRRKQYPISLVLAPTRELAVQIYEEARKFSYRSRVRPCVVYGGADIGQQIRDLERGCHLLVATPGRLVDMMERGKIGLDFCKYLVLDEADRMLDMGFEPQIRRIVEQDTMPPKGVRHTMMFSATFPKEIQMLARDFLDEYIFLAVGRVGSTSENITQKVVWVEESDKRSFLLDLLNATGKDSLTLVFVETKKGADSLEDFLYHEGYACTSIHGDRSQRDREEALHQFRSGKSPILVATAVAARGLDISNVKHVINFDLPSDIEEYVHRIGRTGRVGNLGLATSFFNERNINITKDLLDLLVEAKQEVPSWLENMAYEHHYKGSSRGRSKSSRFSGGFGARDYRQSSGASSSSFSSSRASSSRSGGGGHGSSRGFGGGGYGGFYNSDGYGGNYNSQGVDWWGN

solubility in assay medium ([1]; during the enzymatic assay): precipitated from medium
Compound: CCCCc1cc(-c2ccc(NC(=O)Nc3ccccc3C(F)(F)F)cc2)no1 [Compound 2, 1-(4-(5-Butylisoxazol-3-yl)phenyl)-3-(2-(trifluoromethyl)phenyl)urea]

IC50 [1]: 50000 ± 7000 nM
Compound: CCCCc1nnc(-c2ccc(NC(=O)Nc3ccccc3C(F)(F)F)cc2)s1 [Compound 8, 1-(4-(5-Butyl-1,3,4-thiadiazol-2-yl)phenyl)-3-(2-(trifluoromethyl)phenyl)urea]
mean absorbance at 490 nm (MTS) ([2]; U251, 0,01 uM): 2,363 | mean absorbance at 490 nm (MTS) ([2]; U251, 0,1 uM): 2,282 | mean absorbance at 490 nm (MTS) ([2]; U251, 1 uM): 2,177 | mean absorbance at 490 nm (MTS) ([2]; U251, 10 uM): 1,806 | mean absorbance at 490 nm (MTS) ([2]; U251, 100 uM): 0,786 | growth inhibition in all the cell lines tested [3]: poorly effective against all the cell lines tested | mean absorbance at 490 nm (MTS) ([4]; U87, 0,01 uM): 2,267 | mean absorbance at 490 nm (MTS) ([4]; U87, 0,1 uM): 1,994 | mean absorbance at 490 nm (MTS) ([4]; U87, 1 uM): 1,965 | mean absorbance at 490 nm (MTS) ([4]; U87, 10 uM): 1,945 | mean absorbance at 490 nm (MTS) ([4]; U87, 100 uM): 1,054

The remaining lines, values behind:

Compound: 1-(4-(4-Butyl-1H-1,2,3-triazol-1-yl)phenyl)-3-(4-methylpyridin-3-yl)urea [Compound 14]
IC50 [1]: 2000 ± 300 nM

Compound: 1-(4-(4-Isopentyl-1H-1,2,3-triazol-1-yl)phenyl)-3-(4-methylpyridin-3-yl)urea [Compound 13]
IC50 [1]: 1500 ± 300 nM

Compound: CCCCn1nnc(-c2ccc(NC(=O)Nc3ccccc3C)cc2)n1 [Compound 5, 1-(4-(2-Butyl-2H-tetrazol-5-yl)phenyl)-3-(o-tolyl)urea]
times less active than hit compound 1 (loss of activity) ([1]; DDX3X helicase inhibition relative to compound 1): 16 times

Compound: CC(C)CCc1cn(-c2ccc(NC(=O)Nc3ccccc3C(F)(F)F)cn2)nn1 [Compound 9, 1-(6-(4-Isopentyl-1H-1,2,3-triazol-1-yl)pyridin-3-yl)-3-(2-(trifluoromethyl)phenyl)urea]
IC50 [1]: 1100 ± 200 nM
